# Results from patent publication US8232406B2, “c-MET protein kinase inhibitors” (Vertex Pharmaceuticals Incorporated, priority 2006, dated 2012).
# Biological target: c-MET (Homo sapiens, UniProt P08581)
# Test: Ki determination for the inhibition of c-MET (standard radiometric 33P-ATP kinase assay, polyE4Y substrate)
# Format: biochemical
# Settings: 1.0 nM c-Met, 35 μM ATP, 0.5 mg/mL polyE4Y, 20 min; competitive tight-binding fit
# In short: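 Ki obtained by fitting data to competitive tight-binding inhibition kinetics. c-Met at 1.0 nM phosphorylated polyE4Y (0.5 mg/mL) with 35 μM 33P-ATP for 20 min in pH 7.5 HEPES buffer with MgCl2, NaCl, BSA and DTT. Incorporated label measured by scintillation after TCA precipitation on filters.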
# c-MET, sequence (P08581 25-1390): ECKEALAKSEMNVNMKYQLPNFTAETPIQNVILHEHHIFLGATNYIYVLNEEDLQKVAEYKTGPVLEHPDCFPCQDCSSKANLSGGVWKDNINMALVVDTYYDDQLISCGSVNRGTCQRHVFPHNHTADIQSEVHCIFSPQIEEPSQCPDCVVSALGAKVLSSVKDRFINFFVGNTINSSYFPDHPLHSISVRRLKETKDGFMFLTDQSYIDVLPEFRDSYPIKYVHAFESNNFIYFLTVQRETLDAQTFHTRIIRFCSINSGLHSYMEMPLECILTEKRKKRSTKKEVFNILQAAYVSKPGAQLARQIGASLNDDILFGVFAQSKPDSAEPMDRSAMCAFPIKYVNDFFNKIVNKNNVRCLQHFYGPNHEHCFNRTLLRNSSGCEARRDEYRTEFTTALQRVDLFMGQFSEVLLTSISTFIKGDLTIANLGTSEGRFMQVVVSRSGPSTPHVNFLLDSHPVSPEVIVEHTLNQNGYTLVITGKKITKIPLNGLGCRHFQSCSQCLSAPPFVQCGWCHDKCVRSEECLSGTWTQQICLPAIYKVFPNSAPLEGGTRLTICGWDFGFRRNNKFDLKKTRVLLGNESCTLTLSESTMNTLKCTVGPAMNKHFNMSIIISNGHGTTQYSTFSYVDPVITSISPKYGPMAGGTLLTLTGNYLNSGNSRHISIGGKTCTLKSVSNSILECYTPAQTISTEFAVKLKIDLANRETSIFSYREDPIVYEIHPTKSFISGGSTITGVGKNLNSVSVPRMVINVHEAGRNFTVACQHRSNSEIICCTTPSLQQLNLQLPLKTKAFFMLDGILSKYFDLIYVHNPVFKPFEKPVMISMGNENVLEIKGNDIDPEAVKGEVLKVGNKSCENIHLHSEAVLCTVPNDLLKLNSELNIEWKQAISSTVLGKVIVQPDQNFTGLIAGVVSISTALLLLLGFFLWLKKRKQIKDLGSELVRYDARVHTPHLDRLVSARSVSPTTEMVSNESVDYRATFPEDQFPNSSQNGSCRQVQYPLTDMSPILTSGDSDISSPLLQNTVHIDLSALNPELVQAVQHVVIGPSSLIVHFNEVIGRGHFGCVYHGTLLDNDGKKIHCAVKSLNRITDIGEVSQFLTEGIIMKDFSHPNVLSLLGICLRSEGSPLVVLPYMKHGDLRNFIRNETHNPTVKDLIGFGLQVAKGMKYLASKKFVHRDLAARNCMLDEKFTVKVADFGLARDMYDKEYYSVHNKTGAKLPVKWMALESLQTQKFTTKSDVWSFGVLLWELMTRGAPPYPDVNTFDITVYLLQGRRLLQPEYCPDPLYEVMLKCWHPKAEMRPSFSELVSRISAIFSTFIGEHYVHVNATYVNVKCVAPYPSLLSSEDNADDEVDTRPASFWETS
row,Ki [nM],Compound
1,≤ 100,Nc1ncc(-c2cc(F)c(N)c(F)c2)cc1-c1nnnn1-c1cccc(F)c1F [I-A-303]
2,≤ 100,CC(C)(C)OC(=O)N1CC=C(c2cnc(N)c(-c3nnnn3-c3cccc(F)c3F)c2)CC1 [I-A-506]
3,≤ 100,Nc1ncc(-c2cnn([C@@H]3CCCNC3)c2)nc1-c1nnnn1-c1cccc(F)c1F [I-A-659]
4,≤ 100,CS(=O)(=O)NCc1ccc(-c2cnc(N)c(-c3nnnn3-c3cccc(F)c3F)c2)cc1 [I-A-192]
5,100 to 1000,CC1(C)CN(c2cccc(-c3cnc(N)c(-c4nnnn4-c4cccc(F)c4F)c3)c2)C1=O [I-A-324]
6,≤ 100,Nc1ncc(-c2ccc(CN3CCCC3)c([N+](=O)[O-])c2)cc1-c1nnnn1-c1cccc(F)c1F [I-A-340]
7,≤ 100,Nc1ncc(-c2cnn([C@H]3CCCNC3)c2)cc1-c1nnnn1-c1cccc(Cl)c1Cl [I-A-409]
8,≤ 100,Nc1ncc(-c2ccc(CN3CCCC3)cc2)cc1-c1nnnn1-c1c(Cl)cccc1Cl [I-A-622]
9,≤ 100,Nc1nc2cc(-c3cnc(N)c(-c4nnnn4-c4cccc(F)c4F)c3)c(F)cc2[nH]1 [I-A-141]
10,≤ 100,CC(C)(O)c1ccc(-c2cnc(N)c(-c3nnnn3-c3cccc(F)c3F)c2)cc1 [I-A-268]
11,≤ 100,Nc1ncc(-c2cnn(CC(O)CO)c2)cc1-c1nc2cnccc2n1-c1cccc(F)c1F [I-D-10]
12,100 to 1000,Cc1nn(C2CCNCC2)c(C)c1-c1cnc(N)c(-c2nnnn2-c2cccc(F)c2F)c1 [I-A-478]
13,≤ 100,Nc1ncc(-c2cnn(C3CCNCC3)c2)cc1-c1nnnn1-c1c(F)ccc(Cl)c1F [I-A-382]
14,≤ 100,CC(C)C(=O)N1CC=C(c2cnc(N)c(-c3nnnn3-c3cccc(F)c3F)c2)CC1 [I-A-512]
15,≤ 100,Nc1ncc(-c2ccc(C3NC(=O)NC3=O)cc2)cc1-c1nnnn1-c1cccc(F)c1F (stereo not shown) [I-A-257]
16,≤ 100,CN(C)CC(=O)Nc1ccc(-c2cnc(N)c(-c3nnnn3-c3cccc(F)c3F)c2)cc1 [I-A-191]
17,≤ 100,Nc1nc2cc(F)c(-c3cnc(N)c(-c4nncn4-c4cccc(F)c4F)n3)cc2[nH]1 [I-A-56]
18,100 to 1000,CC(=O)Nc1cccc(-c2cnc(N)c(-c3nnnn3-c3cccc(F)c3C)c2)c1 [I-A-564]
19,≤ 100,Nc1ncc(-c2cnn(C3CCN(CC4CCCC4)CC3)c2)cc1-c1nnnn1-c1cccc(Cl)c1F [I-A-474]
20,100 to 1000,Nc1ncc(-c2cc3c(s2)CCNCC3)cc1-n1nnnc1-c1cccc(F)c1F [I-E-2]
21,≤ 100,COCC(=O)Nc1ccc(-c2cnc(N)c(-c3nnnn3-c3cccc(F)c3F)c2)cc1 [I-A-342]
22,100 to 1000,Cc1ccccc1-c1cnc(N)c(-c2nnnn2-c2cccc(F)c2F)c1 [I-A-241]
23,≤ 100,Nc1ncc(-c2cnn(CC3COCO3)c2)cc1-c1nnnn1-c1cccc(F)c1F (stereo not shown) [I-A-433]
24,≤ 100,Nc1ncc(-c2ccc(CN3CCCC3)cc2)cc1-c1nnnn1-c1c(F)ccc(Cl)c1F [I-A-376]
25,≤ 100,Nc1ncc(-c2cnn(C3CCNCC3)c2)cc1-c1nccn1-c1cccc(Cl)c1Cl [I-A-394]
